Test results as given in patent publication US8298781B2, “Compositions and methods for characterizing and regulating olfactory sensation” (Duke University, priority 2007, dated 2012).

Target: T1, OR7D4 WM (Homo sapiens, UniProt Q8NG98, R88W/T133M)
T1 construct: expressed in transfected cells; host or cells: Hana3A (HEK293T-derived)
T1 sequence (Q8NG98 1-312 R88W/T133M): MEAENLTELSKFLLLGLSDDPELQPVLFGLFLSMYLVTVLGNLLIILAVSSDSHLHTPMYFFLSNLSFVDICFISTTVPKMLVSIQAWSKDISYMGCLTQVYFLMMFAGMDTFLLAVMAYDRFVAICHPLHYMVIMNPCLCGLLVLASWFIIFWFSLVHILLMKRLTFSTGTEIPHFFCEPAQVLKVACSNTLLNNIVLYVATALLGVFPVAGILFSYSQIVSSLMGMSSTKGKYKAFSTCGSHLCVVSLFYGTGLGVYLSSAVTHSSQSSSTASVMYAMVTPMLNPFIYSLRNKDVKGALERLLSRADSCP
Assay: Luciferase assay of odorant receptor activation in Hana3A cells, OR7D4 WM
Type: cell-based
Conditions: variant R88W/T133M, relative to OR7D4 RT
Source text: Heterologous expression of human odorant receptors. 423 human odorant receptors including 337 predicted functional receptors were cloned. Odorant receptors that contained the first 20 amino acid of human rhodopsin (see, e.g., Krautwurst, D., et al., Cell 95, 917-926 (1998); herein incorporated by reference in its entirety) in pCl (Promega) were expressed in the Hana3A cell line along with a short form of mRTP1, RTP1S, (M37 to the C-terminal end), which enhanced functional expression of the odorant receptors. For immunocytochemistry, cells were fixed, permeabilized and incubated with monoclonal anti-rhodopsin antibody, 4D2 (see, e.g., Laird, D. W., et al., Invest Opthalmol Vis Sci 29.419428 (1988); herein incorporated by reference in its entirety), followed by Cy3-conjugated donkey anti-mouse IgG (Jackson Immunologicals). […]
Luciferase assay and data analysis. […] Luminescence was measured using Wallac Victor 1420 (Perkin-Elmer). Normalized luciferase activity was calculated by the formula [luc(N)-luc(lowest)]/luc(highest)/RL (N) where luc(N)=luminescence of luciferase of a certain well; luc(lowest)=lowest luminescence of luciferase of a plate or a set of plates; luc(highest)=highest luminescence of luciferase of a plate or a set of plates; RL(N)=luminescence of Renilla luciferase of a certain well. Data was analyzed with Microsoft Excel and GraphPad Prism 4.

SMILES	function of OR7D4 WM in vitro in the presence of the odor
C[C@@]12C=CC[C@H]1[C@@H]1CCC3=CC(=O)CC[C@]3(C)[C@H]1CC2 [androstadienone, androsta-4,16-dien-3-one]	severely impaired olfactory function
C[C@]12CCC(=O)C[C@@H]1CC[C@@H]1[C@@H]2CC[C@]2(C)C=CC[C@@H]12 [androstenone, 5α-androst-16-en-3-one]	severely impaired olfactory function
